Entries after “also recorded” stand apart in the source; their conditions may differ. Read-outs that look alike come from different tables or passages of the source.
Key:
[1] = Example D: HTL0018318 plasma pharmacokinetics; format: in vivo, human
Procedure: Selected plasma pharmacokinetics (PK) parameters for HTL0018318 were estimated during the period over which PD assessments were made. Details of assessment times for all endpoints are described below.
Pharmacokinetics (PK) were evaluated via blood samples, for determination of HTL0018318 concentrations in plasma. Blood samples were collected during clinic visits before morning dose administration and 1, 2, and 4 hours after dose administration, on Day 1, Day 6, Day 11, Day 16, Day 28, and Day 35 (follow-up visit). Bioanalysis used a fully validated method and all samples were analysed within the established period of storage stability. Validated Phoenix® WinNonlin® Version 6.4 was used to derive PK parameters.
All safety analyses used the safety set (SAF; randomised dose). The SAF (randomised dose) included all randomised patients who received at least one dose of the study drug; treatment group assignment was based on the initial randomised dose. All efficacy analyses were considered exploratory and used the full analysis set (FAS). The FAS included all randomised patients with at least one post-baseline efficacy measurement; treatment group assignment was based on the initial randomised dose. All summaries and analyses of PK data used the pharmacokinetic set (PKS). The PKS included all randomised patients with valid PK assessments; treatment group assignment was based on actual dose received.

[2] = in humans; cited from earlier work

## CCOC(=O)N1C2CCC1CC(N1CCC3(CC1)CNC(=O)C3)C2 (centres unmarked) [HTL0018318, ethyl 3-(3-oxo-2,8-diazaspiro[4.5]dec-8-yl)-8-azabicyclo[3.2.1]octane-8-carboxylate]
[1]; 5 mg, visit day 6
  Ctrough, arithmetic mean ± SD: 14.2 ± 12.1 ng/mL
[1]; 5 mg, visit day 11
  Ctrough, arithmetic mean ± SD: 13.7 ± 10.3 ng/mL
[1]; 10 mg, visit day 6
  Ctrough, arithmetic mean ± SD: 7.55 ± 4.72 ng/mL
[1]; 10 mg, visit day 11, n = 2
  Ctrough, mean: 5.47 ng/mL
[1]; 15 mg, visit day 6
  Ctrough, arithmetic mean ± SD: 19.0 ± 25.7 ng/mL
[1]; 15 mg, visit day 11
  Ctrough, arithmetic mean ± SD: 27.9 ± 40.7 ng/mL
[1]; 25 mg, visit day 28
  Cmax, arithmetic mean ± SD: 223 ± 134 ng/mL
[1]; 5-25 mg
  dose-exposure proportionality (Cmax, AUC0-4 h): Dose-exposure proportionality was confirmed; also recorded: increased proportionally across 5-25 mg doses
[1]; any given dose level
  steady-state achieved with daily dosing: 5 days
[1]; human, plasma, 5 mg, visit day 1, read-out: AUC0-4 h, arithmetic mean ± SD
  AUC(0-t): 113 ± 57.6 ng·h/mL
[1]; human, plasma, 5 mg, visit day 1, read-out: Cmax, arithmetic mean ± SD
  Cmax: 40.3 ± 24.4 ng/mL
[1]; human, plasma, 5 mg, visit day 6, read-out: AUC0-4 h, arithmetic mean ± SD
  AUC(0-t): 146 ± 53.1 ng·h/mL
[1]; human, plasma, 5 mg, visit day 6, read-out: Cmax, arithmetic mean ± SD
  Cmax: 50.5 ± 15.6 ng/mL
[1]; human, plasma, 5 mg, visit day 11, read-out: AUC0-4 h, arithmetic mean ± SD
  AUC(0-t): 149 ± 70.6 ng·h/mL
[1]; human, plasma, 5 mg, visit day 11, read-out: Cmax, arithmetic mean ± SD
  Cmax: 48.3 ± 19.6 ng/mL
[1]; human, plasma, 5 mg, visit day 16, read-out: AUC0-4 h, arithmetic mean ± SD
  AUC(0-t): 132 ± 56.2 ng·h/mL
[1]; human, plasma, 5 mg, visit day 16, read-out: Cmax, arithmetic mean ± SD
  Cmax: 46.4 ± 18.9 ng/mL
[1]; human, plasma, 5 mg, visit day 28, read-out: AUC0-4 h, arithmetic mean ± SD
  AUC(0-t): 144 ng·h/mL
[1]; human, plasma, 5 mg, visit day 28, read-out: Cmax, arithmetic mean ± SD
  Cmax: 51.8 ng/mL
[1]; human, plasma, 10 mg, visit day 6, read-out: AUC0-4 h, arithmetic mean ± SD
  AUC(0-t): 244 ± 88 ng·h/mL
[1]; human, plasma, 10 mg, visit day 6, read-out: Cmax, arithmetic mean ± SD
  Cmax: 82.4 ± 31.6 ng/mL
[1]; human, plasma, 10 mg, visit day 11, n = 2, read-out: AUC0-4 h, mean [minimum, maximum]
  AUC(0-t): 231 ng·h/mL
[1]; human, plasma, 10 mg, visit day 11, read-out: Cmax, arithmetic mean ± SD
  Cmax: 69.7 ± 33.6 ng/mL
[1]; human, plasma, 10 mg, visit day 16, n = 1, read-out: AUC0-4 h
  AUC(0-t): 302 ng·h/mL
[1]; human, plasma, 10 mg, visit day 16, n = 1, read-out: Cmax
  Cmax: 87.5 ng/mL
[1]; human, plasma, 10 mg, visit day 28, n = 1, read-out: AUC0-4 h
  AUC(0-t): 222 ng·h/mL
[1]; human, plasma, 10 mg, visit day 28, n = 1, read-out: Cmax
  Cmax: 89 ng/mL
[1]; human, plasma, 15 mg, visit day 6, read-out: AUC0-4 h, arithmetic mean ± SD
  AUC(0-t): 315 ± 163 ng·h/mL
[1]; human, plasma, 15 mg, visit day 6, read-out: Cmax, arithmetic mean ± SD
  Cmax: 106 ± 54 ng/mL
[1]; human, plasma, 15 mg, visit day 11, read-out: AUC0-4 h, arithmetic mean ± SD
  AUC(0-t): 379 ± 77.5 ng·h/mL
[1]; human, plasma, 15 mg, visit day 11, read-out: Cmax, arithmetic mean ± SD
  Cmax: 126 ± 29.3 ng/mL
[1]; human, plasma, 15 mg, visit day 16, read-out: AUC0-4 h, arithmetic mean ± SD
  AUC(0-t): 422 ± 94.5 ng·h/mL
[1]; human, plasma, 15 mg, visit day 16, read-out: Cmax, arithmetic mean ± SD
  Cmax: 136 ± 31.4 ng/mL
[1]; human, plasma, 15 mg, visit day 28, read-out: AUC0-4 h, arithmetic mean ± SD
  AUC(0-t): 368 ng·h/mL
[1]; human, plasma, 15 mg, visit day 28, read-out: Cmax, arithmetic mean ± SD
  Cmax: 123 ng/mL
[1]; human, plasma, 25 mg, visit day 11, read-out: AUC0-4 h, arithmetic mean ± SD
  AUC(0-t): 650 ± 302 ng·h/mL
[1]; human, plasma, 25 mg, visit day 11, read-out: Cmax, arithmetic mean ± SD
  Cmax: 222 ± 102 ng/mL
[1]; human, plasma, 25 mg, visit day 16, read-out: AUC0-4 h, arithmetic mean ± SD
  AUC(0-t): 728 ± 359 ng·h/mL
[1]; human, plasma, 25 mg, visit day 16, read-out: Cmax, arithmetic mean ± SD
  Cmax: 243 ± 108 ng/mL
[1]; human, plasma, 25 mg, visit day 28, read-out: AUC0-4 h, arithmetic mean ± SD
  AUC(0-t): 668 ng·h/mL
[1]; human, plasma, 25 mg, visit day 28, read-out: Cmax, arithmetic mean ± SD
  Cmax: 224 ng/mL
[1]; human, plasma, 5 mg, visit day 16, read-out: Ctrough, arithmetic mean ± SD
  concentration at 16 day: 14.1 ± 10.8 ng/mL
[1]; human, plasma, 5 mg, visit day 28, read-out: Ctrough, arithmetic mean ± SD
  concentration at 28 day: 14.2 ± 12.3 ng/mL
[1]; human, plasma, 10 mg, visit day 16, n = 1, read-out: Ctrough
  concentration at 16 day: 8.25 ng/mL
[1]; human, plasma, 10 mg, visit day 28, n = 1, read-out: Ctrough
  concentration at 28 day: 6.41 ng/mL
[1]; human, plasma, 15 mg, visit day 16, read-out: Ctrough, arithmetic mean ± SD
  concentration at 16 day: 29.4 ± 38.5 ng/mL
[1]; human, plasma, 15 mg, visit day 28, read-out: Ctrough, arithmetic mean ± SD
  concentration at 28 day: 23.2 ± 16 ng/mL
[1]; human, plasma, 25 mg, visit day 11, read-out: Ctrough, arithmetic mean ± SD
  concentration at 11 day: 22.2 ± 21.8 ng/mL
[1]; human, plasma, 25 mg, visit day 16, read-out: Ctrough, arithmetic mean ± SD
  concentration at 16 day: 66.7 ± 80.4 ng/mL
[1]; human, plasma, 25 mg, visit day 28, read-out: Ctrough, arithmetic mean ± SD
  concentration at 28 day: 40.3 ± 30.6 ng/mL
[1]; human, plasma, all doses, read-out: Tmax (median)
  Tmax: 1 to 2 h
[2]
  Tmax: 1 to 2 h
  half-life: approximately 16 hours
